Test results taken from patent publication US10011562B2, “Long-chain dimethylaniline derivative compounds, their preparation methods, self-assembled textures, and uses thereof” (WEST CHINA HOSPITAL, SICHUAN UNIVERSITY, priority 2014, dated 2018).

Legend:
Type in all cases: in vivo
sciatic nerve of rats [1] = experiment: First local anesthetic experiment of rats: blocking of sciatic nerve, mechanical withdrawal threshold (VFH, von Frey filaments)
Description: (§1) Selected above micelle, positive control lidocaine, and negative control normal saline were respectively administrated to 28 groups of test rats fully adapted to experiment environment, with five rats for each group. The administration dosage is: the concentration of lidocaine group being 2% aqueous solution (84 mmol/L), and the concentration of tested drug being 5 mmol/L. The injection volume of each rat receiving drugs or the control was 0.2 ml, and the drug or the control was injected to close to sciatic nerve of rats by guidance of nerve locator.
(§2) The tested rats were placed on bench board and allowed to inhale 5% isoflurane. After body-righting reflex abolition, rats are allowed to continue inhaling 1.5% isoflurane, to keep anesthesia. Keeping left-lateral position, their corresponding injection area sacrococygeal region was shaved, then routine sterilization and draping were performed. Two osseous anatomic landmarks greater trochanter of femur and tuber is chiadicum were laid hands, and the middle point of this line was the needle insertion position. If skin was taut, 1 ml injector was inserted along perpendicular of skin. When needlepoint reached hucklebone, the insertion was finished. […] Needle was lifted, and is oflurane was shut off. Animals were placed in observation cage until they naturally awakened.
(§3) Rats were placed in transparent observation cages with a bottom of smooth metal sieve plate, and the corrected von frey filament was used to stimulate the foot lateral skin of rats (innervated region of sciatic nerve) from down to up. […] For each stimulation, slightly bent of filament was used as a standard, or rats moved aside this side of limbs. Otherwise, once the stimulation time reached 3 s, operator stopped stimulating. Three tests were carried out for each time point, and the interval between two tests was 5 min, to avoid sensibilization.
(§4) If the mechanical withdrawal threshold value was more than 60 g, the nerve blocking was considered as effective.

sciatic nerve of rats [2] = experiment: First local anesthetic experiment of rats: blocking of sciatic nerve, motor function by hindlimb postural extensor thrust (PET)
Description: as §1, §2
(§5) The hindlimb postural extensor thrust (PET) was used for evaluation. Rats were lifted vertically and their hindlimbs of injection side stepped on the top of electronic balance. At this time, the postural extensor thrust was shown as the value of balance. When limbs were completely paralytic, the digital reading was the weight of limbs, about 20 g. If the test value was more than half of the difference between the baseline and the limbs weight, the motor function was taken as recovery; If less than or equal to half of the difference, the motor function was taken as deprivation.
(§6) The interval between completion of injection and the time point that the motor function was firstly deprivated was the time of effective motor blocking; the interval between completion of injection and the time point that the motor function was firstly recovered was the time of ineffective motor blocking; their difference was the hold time of motor blocking.

sciatic nerve of rats [3] = experiment: Third local anesthetic experiment of rats: hydrogels embedded near the sciatic nerve, mechanical withdrawal threshold (VFH)
Description: as §3, §4
(§7) 25 mmol/L transparent uniform hydrogels of products obtained in Examples 7-10 and 13-32 were prepared under sterile conditions, as the method of Example 45, and kept for use.
(§8) Above hydrogels, positive control lidocaine, and negative control normal saline were respectively administrated to 35 groups of test rats fully adapted to experiment environment, with five rats for each group. The administration dosage is: the concentration of lidocaine group being 2% aqueous solution (84 mmol/L). The injection volume of each rat receiving drugs or the control was […], and the control was injected to near the sciatic nerve of rats by guidance of nerve locator; by surgery, the gels were embedded near the sciatic nerve of experimental rats after general anesthesia using sevoflurane. Specific procedures and the evaluation criterion for local anesthetic effect were same as mentioned in Example 60.

sciatic nerve of rats [4] = experiment: Third local anesthetic experiment of rats: hydrogels embedded near the sciatic nerve, motor function (PET)
Excerpt: as §5, §6, §7, §8

[5] = rats, 0.2 ml injected close to sciatic nerve, tested drug 5 mmol/L solution (micelle), lidocaine 2% (84 mmol/L), threshold above 60 g
[6] = rats, 0.2 ml injected close to sciatic nerve, tested drug 5 mmol/L solution (micelle), lidocaine 2% aqueous solution (84 mmol/L)
[7] = rats, 0.2 ml injected close to sciatic nerve, tested drug 5 mmol/L solution (micelle), lidocaine 2% (84 mmol/L)
[8] = rats, 25 mmol/L hydrogel, 0.2 g embedded by surgery near sciatic nerve, lidocaine 2% (84 mmol/L) injected

Structure (SMILES)	Effective local anesthetic time (sciatic nerve of rats [1]; rat, in vivo)	The hold time of sensation blocking (sciatic nerve of rats [1]; rat, in vivo)	The hold time of motor blocking (sciatic nerve of rats [2]; rat, in vivo)	The hold time of sensation blocking (sciatic nerve of rats [1]; [5])	Effective local anesthetic time (sciatic nerve of rats [1]; [6])	The hold time of motor blocking (sciatic nerve of rats [2]; [7])	Effective local anesthetic time (sciatic nerve of rats [3]; [8])	The hold time of sensation blocking (sciatic nerve of rats [3]; [8])	The hold time of motor blocking (sciatic nerve of rats [4]; [8])	Effective local anesthetic time (sciatic nerve of rats [3]; rat, in vivo)	The hold time of sensation blocking (sciatic nerve of rats [3]; rat, in vivo)	The hold time of motor blocking (sciatic nerve of rats [4]; rat, in vivo)
CCCC(=O)OC[N+](CC)(CC)CC(=O)Nc1c(C)cccc1C [Example4product]	20 min	8 h	8 h	–	–	–	–	–	–	–	–	–
CC[N+](CC)(COC(=O)C(C)(C)C)CC(=O)Nc1c(C)cccc1C [Example5product]	18 min	8 h	8 h	–	–	–	–	–	–	–	–	–
CC[N+](CC)(CCOC(C)=O)CC(=O)Nc1c(C)cccc1C [Example6product]	–	–	–	72 h	20 min	72 h	–	–	–	–	–	–
CCCCCCCCCCCC(=O)OCC[N+](CC)(CC)CC(=O)Nc1c(C)cccc1C [Example7product]	–	–	–	75 h	20 min	70 h	60 min	90 h	80 h	–	–	–
CCCCCCCCCCCCCCCC(=O)OCC[N+](CC)(CC)CC(=O)Nc1c(C)cccc1C [Example8product]	–	–	–	73 h	18 min	70 h	70 min	92 h	82 h	–	–	–
CCCCCCCCCCCC(=O)OCC[N+](CC)(CC)CC(=O)Nc1c(C)cccc1C [Example9product]	20 min	80 h	80 h	–	–	–	–	–	–	75 min	98 h	80 h
CCCCCCCCCCCCCCCC(=O)OCC[N+](CC)(CC)CC(=O)Nc1c(C)cccc1C [Example10product]	20 min	81 h	81 h	–	–	–	–	–	–	85 min	80 h	72 h
CCOC(=O)OCC[N+](CC)(CC)CC(=O)Nc1c(C)cccc1C [Example11product]	20 min	82 h	82 h	–	–	–	–	–	–	–	–	–
CCCCOC(=O)OCC[N+](CC)(CC)CC(=O)Nc1c(C)cccc1C [Example12product]	20 min	80 h	80 h	–	–	–	–	–	–	–	–	–
CCCCCCOC(=O)OCC[N+](CC)(CC)CC(=O)Nc1c(C)cccc1C [Example13product]	19 min	79 h	79 h	–	–	–	–	–	–	45 min	80 h	76 h
CCCCCCCOC(=O)OCC[N+](CC)(CC)CC(=O)Nc1c(C)cccc1C [Example14product]	15 min	82 h	70 h	–	–	–	–	–	–	45 min	81 h	76 h
CCCCCCCOC(=O)OCC[N+](CC)(CC)CC(=O)Nc1c(C)cccc1C [Example15product]	17 min	81 h	66 h	–	–	–	–	–	–	53 min	81 h	79 h
CCCCCCCCOC(=O)OCC[N+](CC)(CC)CC(=O)Nc1c(C)cccc1C [Example16product]	18 min	85 h	62 h	–	–	–	–	–	–	56 min	82 h	82 h
CCCCCCCCOC(=O)OCC[N+](CC)(CC)CC(=O)Nc1c(C)cccc1C [Example17product]	16 min	82 h	62 h	–	–	–	–	–	–	63 min	85 h	82 h
CCCCCCCCCOC(=O)OCC[N+](CC)(CC)CC(=O)Nc1c(C)cccc1C [Example18product]	16 min	88 h	60 h	–	–	–	–	–	–	60 min	83 h	79 h
CCCCCCCCCOC(=O)OCC[N+](CC)(CC)CC(=O)Nc1c(C)cccc1C [Example19product]	16 min	82 h	56 h	–	–	–	–	–	–	65 min	90 h	88 h
CCCCCCCCCOC(=O)OCC[N+](CC)(CC)CC(=O)Nc1c(C)cccc1C [Example21product]	–	–	–	82 h	18 min	60 h	75 min	88 h	79 h	–	–	–
CCCCCCCCCOC(=O)OCC[N+](CC)(CC)CC(=O)Nc1c(C)cccc1C [Example22product]	–	–	–	81 h	18 min	61 h	78 min	95 h	87 h	–	–	–
CCCCCCCCCCOC(=O)OCC[N+](CC)(CC)CC(=O)Nc1c(C)cccc1C [Example23product]	20 min	82 h	62 h	–	–	–	–	–	–	80 min	92 h	76 h
CCCCCCCCCCOC(=O)OCC[N+](CC)(CC)CC(=O)Nc1c(C)cccc1C [Example24product]	20 min	82 h	75 h	–	–	–	–	–	–	78 min	87 h	79 h
CCCCCCCCCCCOC(=O)OCC[N+](CC)(CC)CC(=O)Nc1c(C)cccc1C [Example25product]	20 min	81 h	80 h	–	–	–	–	–	–	82 min	83 h	79 h
CCCCCCCCCCCCOC(=O)OCC[N+](CC)(CC)CC(=O)Nc1c(C)cccc1C [Example26product]	20 min	80 h	80 h	–	–	–	–	–	–	88 min	81 h	77 h
CCCCCCCCCCCCOC(=O)OCC[N+](CC)(CC)CC(=O)Nc1c(C)cccc1C [Example27product]	20 min	78 h	80 h	–	–	–	–	–	–	90 min	83 h	76 h
CCCCCCCCCCCCCCOC(=O)OCC[N+](CC)(CC)CC(=O)Nc1c(C)cccc1C [Example28product]	20 min	76 h	79 h	–	–	–	–	–	–	88 min	83 h	79 h
